Data as given in patent US20180353512A1, “COMBINATION THERAPIES FOR TREATING B-CELL MALIGNANCIES” (GILEAD SCIENCES, INC., priority 2015, published 2018).
Where two headings read alike, the source gives them in different places.

Experiments:
Type in all cases: cell-based
[1] = system: TMD8^R (Idelalisib-resistant line); test: CellTiter-Glo viability assay at 96 h; settings: read-out: EC50, cell viability
Procedure: (§1) Growth inhibition to Idelalisib or other inhibitors was assessed using CellTiter-Glo viability assay at 96 h. […] Cell lines were analyzed by whole exome sequencing, RNASeq, and phosphoproteomics. Protein expression was measured using Simple Western and SDS/PAGE and western blot. Caspase 3/7 was measured using Caspase-Glo 3/7 assay; apoptosis was measured with Annexin V assay and propidium iodide by flow cytometry.
(§2) Cell viability EC50 was determined using a sigmoidal dose-response (variable slope) curve generated from quadruplicate samples. Statistical significance was determined using the student's t-test for cell viability and two-tailed paired t-test for apoptosis experiments in Prism (GraphPad).
(§3) Idelalisib-resistant (TMD8^R) cell line and passage-matched Idelalisib-sensitive (TMD8^S) cell line were generated according to the procedure described in Example 5 above. To characterize the resistant cells, cell viability assays, RNASeq of multidrug resistance (MDR) family of ABC transporter genes (N=33), apoptosis assays, and phosphoprotein analysis were performed. Cell viability was measured using CellTiter-Glo, as described in Example 1A above. Western blot and protein level analysis were performed after treatment with 420 nM idelalisib, 320 nM Compound B and combination thereof, using Peggy Sue (ProteinSimple) automated Western Blot system. Protein concentration (pg/μL) was quantitated using recombinant protein standards. Normalized AUC were determined for each of the treatment groups, normalized to actin. Apoptosis was assessed by propidium iodide and Annexin V/FITC staining and measured by flow cytometry, as described in Example 1A above. Western Blot with anti-p-AKT (S473) antibody and Peggy Sue were used to determine the phosphorylation state of downstream signaling components.

TMD8^R cells = test: Apoptosis, Annexin V assay and propidium iodide by flow cytometry; settings: Annexin V at 48 h, Idelalisib=1 μM
Procedure: as §1

TMD8 = test: CellTiter-Glo viability assay at 96 h (Example 5); settings: Homo sapiens
Procedure: as §1, §2

FSCCL (WSU-FSCCL) = test: CellTiter Glo viability assay after 96 h; settings: read-out: EC50, cell viability
Procedure: (§4) Idelalisib resistance was established by continuous passaging of a clonal isolate of WSU-FSCCL in the presence of 1 μM idelalisib; clonal isolates from a passage-matched line (FSCCL^S) and idelalisib-resistant line (FSCCL^R) were generated through 2 rounds of single-cell-limiting dilution. Growth inhibition to idelalisib or other inhibitors was performed after 96 h using CellTiter Glo viability assay. Characterization of mutations and gene expression were identified by whole exome sequencing and RNA-Seq, respectively. Whole cell lysates were analyzed by western blots.

FSCCL^R SFK^HIGH = test: CellTiter Glo viability assay after 96 h
Procedure: as §4

FSCCL^S = test: CellTiter Glo viability assay after 96 h; settings: read-out: EC50
Procedure: as §4

OCI-LY10 cells = test: CellTiter-Glo cell viability assay, four days (Example 1A); settings: OCI-LY10; single agent
Procedure: (§5) In vitro anti-proliferative activity of agents was assessed using CellTiter-Glo™ Assay (Promega), which quantifies cellular ATP level. Test compounds were dissolved in DMSO to prepare 10 mM stock solutions. […] For drug combination studies, a two or three fold horizontal serial dilution pattern was used for Compound B and combined with Idelalisib using a two, three, or four fold vertical serial dilution pattern. […] The final DMSO concentration in the test media was 0.2%. Each combination used replicates of four plates to generate sufficient data for evaluation of synergy scores. […] The assay growth medium for all lines was RPMI supplemented with 20% FBS and […] penicillin-streptomycin. Seeding density was optimized for growth rate over 96 hours for each cell line and was between 10,000-30,000 cells per well of 96 well plates. After four days incubation with agents at 37° C./5% CO2, the CellTiter-Glo™ assay was performed following the manufacturer's protocol. Relative luminescence units were quantified using a Biotek Synergy luminometer.
(§6) Data from a plate was excluded if either Z′<0.5 or the growth of the cell lines was less than one doubling in the four day assay period. Z′ was calculated using the formula: Z′=[1−((3(σstau+σDMSO))/(|μDMSO−μstau|)] where σstau and σDMSO are the standard deviation of the 100% inhibited staurosporine and 0% inhibited DMSO control wells, respectively. μDMSO and μstau are the mean of the […] control wells, respectively. The raw Cell Titer Glo signal was normalized according to the following formula: [(raw value)−(100% inhibited staurosporine control)]/[(DMSO control value)−(100% inhibited staurosporine control)].
(§7) EC50 was determined using GraphPad Prism or Dose Response software by fitting the data to a four parameters variable slope model. […] For combination studies, the EC50 at each test article concentration was determined from graphs of the EC50 of one compound at a fixed dose of second compound. The EC50 shift was calculated by taking the ratio of the EC50 of the single agent by the EC50 at the maximum dose of the second agent.
(§8) Synergy was analyzed using the MacSynergy II program, which calculates a theoretical additive value for the drug combination that is based on the values generated by each drug alone using the Bliss Independence mathematical model. The Bliss independence model assumes that each drug acts independently. The theoretical additive effect for each compound is calculated and then subtracted from the actual effect. Synergy is defined by greater than expected effects while antagonism is defined by less than expected effects. In this example, a synergy volume greater than 50 was considered significant. The EC50 values determined in drug combination studies represent a single experiment run in quadruplicate and therefore may differ slightly from the single agent EC50 values.

Ri-1 cells = test: as above; settings: Ri-1; single agent
Procedure: as §5, §6, §7, §8

TMD-8 cells = test: as above; settings: TMD-8; single agent
Procedure: as §5, §6, §7, §8

[2] = system: TMD8^S (DMSO passage matched, idelalisib-sensitive line); test: CellTiter-Glo viability assay at 96 h; settings: read-out: EC50, cell viability
Procedure: as §1, §2, §3

[3] = system: FSCCL^R clone 1 (PI3KCA E970K); test: CellTiter Glo viability assay after 96 h
Procedure: as §4

[4] = system: FSCCL^R clone 2 (PI3KCA N345K); test: CellTiter Glo viability assay after 96 h
Procedure: as §4

[5] = system: FSCCL^R clone 3 (PI3KCA P539R); test: CellTiter Glo viability assay after 96 h
Procedure: as §4

[6] = FIGS. 11A, 13A, printed with 1 μM of each named agent
[7] = read-out: EC50 BYL-719 (+IDELA 0.6 μm)

Which results are given for `NC1(c2ccc(-c3nc4ccn5c(=O)[nH]nc5c4cc3-c3ccccc3)cc2)CCC1` [MK-2206]?
EC50 [1, 6]: < 10000 nM; apoptosis (TMD8^R cells; MK-2206=1 μM, vehicle control 24%): 33%

For `CNc1nc(-c2ccc3c(N)n[nH]c3c2)cc(N2C[C@@H](C(=O)NC3CCCCC3)CC[C@H]2C)n1` [GSK-2334470], which EC50 [1, 6] is on record?
The EC50 was less than 10000 nM.

And the apoptosis (TMD8^R cells; GSK-2334470=1 μM, vehicle control 22%)?
The apoptosis was 21%.

How did the EC50 (TMD8) turn out when `Cc1cc([C@@H](C)Nc2ccccc2C(=O)O)c2nc(N3CCOCC3)cc(=O)n2c1` [AZD-6482] was run?
Its EC50 is 520 nM.

What about the EC50 (FSCCL (WSU-FSCCL)) of the same molecule?
The EC50 was 4600 nM.

How did the EC50 (FSCCL^R SFK^HIGH; read-out: EC50 Dasatinib (+IDELA 600 nM)) turn out when `Cc1nc(Nc2ncc(C(=O)Nc3c(C)cccc3Cl)s2)cc(N2CCN(CCO)CC2)n1` [Dasatinib] was run?
Its EC50 is 15 nM.

What about the EC50 (FSCCL^R SFK^HIGH; single agent, read-out: EC50 Dasatinib) of the same molecule?
The EC50 was 58 nM.

And the EC50 (FSCCL^S; Table 14, single agent)?
The EC50 was 34 nM.

For `C=CC(=O)N1CCC[C@@H](n2nc(-c3ccc(Oc4ccccc4)cc3)c3c(N)ncnc32)C1` [Ibrutinib, 1-[(3R)-3-[4-Amino-3-(4-phenoxyphenyl)-1H-pyrazolo[3,4-d]pyrimidin-1-yl]piperidin-1-yl]prop-2-en-1-one], which “growth of cell line” value (OCI-LY10 cells) is on record?
The value was “inhibited the growth”.

And the “growth of cell line” value (Ri-1 cells)?
Its value is “inhibited the growth”.

What about the “growth of cell line” value (TMD-8 cells) of the same molecule?
The value was “inhibited the growth”.

What about the EC50 ([2]; unit inferred) of the same molecule?
The EC50 was 0.5 nM.

With `Cc1nc(NC(=O)N2CCC[C@H]2C(N)=O)sc1-c1ccnc(C(C)(C)C(F)(F)F)c1` [BYL-719] as the molecule, how does the EC50 (TMD8) read?
Its EC50 is 1200 nM.

And the EC50 (FSCCL (WSU-FSCCL))?
Its EC50 is greater than 10000 nM.

And the EC50 [3, 7]?
The EC50 was 123 nM.

What about the EC50 ([3]; single agent, read-out: EC50) of the same molecule?
The EC50 was 2120 nM.

What about the EC50 [4, 7] of the same molecule?
The EC50 was 143 nM.

And the EC50 ([4]; single agent, read-out: EC50)?
The EC50 was 1540 nM.

And the EC50 [5, 7]?
The EC50 was 239 nM.

And the EC50 ([5]; single agent, read-out: EC50)?
Its EC50 is greater than 3000 nM.

And the EC50 (FSCCL^S; PI3KCA WT, Table 13, single agent)?
Its EC50 is 1610 nM.

How did the EC50 ([1]; TMD8^R, single agent) turn out when `C[C@H](Nc1nc[nH]c2ncnc1-2)c1cc2cccc(Cl)c2c(=O)n1-c1ccccc1` [Duvelisib, 8-Chloro-2-phenyl-3-[(1S)-1-(3H-purin-6-ylamino)ethyl]-1(2H)-isoquinolinone] was run?
The EC50 was greater than 4000 nM.

And the EC50 ([2]; single agent)?
The EC50 was 580 nM.

Which results are given for `c1cn2cc(-c3ccc4cn[nH]c4c3)nc(Nc3ccc(N4CCOCC4)cc3)c2n1` [ENTO]?
EC50 (FSCCL^R SFK^HIGH; read-out: EC50 ENTO (+IDELA 600 nM)): 1920 nM; EC50 (FSCCL^S; Table 15, single agent): 1800 nM

With `CS(=O)(=O)N1CCN(Cc2cc3nc(-c4cccc5[nH]ncc45)nc(N4CCOCC4)c3s2)CC1` [GDC-0941] as the molecule, how does the EC50 (TMD8) read?
The EC50 was 27 nM.
